ChEMBL document CHEMBL4177762, “Combined Approach of Backbone Amide Linking and On-Resin N-Methylation for the Synthesis of Bioactive and Metabolically Stable Peptides” (J Med Chem, 2018)
Values after ≈ are worked out from the molar mass of the structure shown. Active and inactive are the calls of the source. The rule behind the calls is not given here. Non-standard residues stand in square brackets, D forms with d. Residues, ends and D or L forms follow the SMILES beside them. *: point of attachment. NH(2-(1-naphthyl)ethyl) = c1ccc2c(CCN*)cccc2c1; NMeF = CN[C@@H](Cc1ccccc1)C(=O)O; NMeL = CN[C@@H](CC(C)C)C(=O)O; NHPhenethyl = c1ccc(CCN*)cc1; NMeV = CN[C@H](C(=O)O)C(C)C; NMeC = CN[C@@H](CS)C(=O)O; NMeA = CN[C@@H](C)C(=O)O

How the values were obtained:
Format in all cases: functional, organism-based
Plasmodium falciparum = assay: Antiprotozoal activity against IEF stage of Plasmodium falciparum NF54 after 48 hrs by [3H]-hypoxanthine incorporation assay
[1] = test system: Trypanosoma brucei rhodesiense; assay: Antiprotozoal activity against trypomastigote stage of Trypanosoma brucei rhodesiense STIB900 after 72 hrs by Alamar Blue assay; settings: for IC50: STIB900, 72 h
Escherichia coli = assay: Antibacterial activity against Escherichia coli ATCC 25922 assessed as growth inhibition up to 128 ug/ml
Staphylococcus aureus [2] = assay: Antibacterial activity against Staphylococcus aureus ATCC 29213 assessed as growth inhibition up to 128 ug/ml
Enterococcus faecalis = assay: Antibacterial activity against Enterococcus faecalis ATCC 29212 assessed as growth inhibition up to 128 ug/ml
Pseudomonas aeruginosa = assay: Antibacterial activity against Pseudomonas aeruginosa ATCC 27853 assessed as growth inhibition up to 128 ug/ml
Micrococcus luteus = assay: Antibacterial activity against Micrococcus luteus ATCC 9341 assessed as growth inhibition up to 128 ug/ml
Staphylococcus aureus [3] = assay: Antibacterial activity against methicillin-resistant Staphylococcus aureus ATCC 43300 assessed as growth inhibition up to 128 ug/ml

## CN[C@@H](C)C(=O)N(C)[C@@H](CC(C)C)C(=O)N(C)[C@@H](CC(C)C)C(=O)N(C)[C@@H](CC(C)C)C(=O)NCCc1ccccc1 (H-[NMeA][NMeL][NMeL][NMeL]-NHPhenethyl)
Plasmodium falciparum
  IC50: 1.85 µg/mL (≈ 3.15 µM)

## CN[C@@H](CC(C)C)C(=O)N(C)[C@@H](CC(C)C)C(=O)N(C)[C@@H](CC(C)C)C(=O)N(C)[C@@H](CC(C)C)C(=O)N(C)[C@@H](CC(C)C)C(=O)NCCc1ccccc1
[1]
  Activity: Active

## CN[C@@H](CC(C)C)C(=O)N(C)[C@H](CC(C)C)C(=O)N(C)[C@@H](CC(C)C)C(=O)N(C)[C@@H](CC(C)C)C(=O)NCCc1ccccc1
[1]
  IC50: 1.4 to 2.1 µg/mL (≈ 2.22 to 3.33 µM)

## CN[C@@H](CC(C)C)C(=O)N(C)[C@@H](CC(C)C)C(=O)N(C)[C@@H](CC(C)C)C(=O)N(C)[C@@H](CS)C(=O)NCCc1cccc2ccccc12 (H-[NMeL][NMeL][NMeL][NMeC]-{NH(2-(1-naphthyl)ethyl)})
[1]
  IC50: 7.5 µg/mL (≈ 11.2 µM)

## CN[C@H](CC(C)C)C(=O)N(C)[C@@H](CC(C)C)C(=O)N(C)[C@@H](CC(C)C)C(=O)N(C)[C@@H](CC(C)C)C(=O)NCCc1ccccc1
[1]
  IC50: 1.4 to 2.1 µg/mL (≈ 2.22 to 3.33 µM)

## CN[C@@H](CC(C)C)C(=O)N(C)[C@@H](CC(C)C)C(=O)N(C)[C@@H](CC(C)C)C(=O)N(C)[C@@H](CS)C(=O)NCCc1ccccc1 (H-[NMeL][NMeL][NMeL][NMeC]-NHPhenethyl)
[1]
  IC50: 5.6 µg/mL (≈ 9.03 µM)

## CC(C)C[C@@H](N)C(=O)N[C@@H](CC(C)C)C(=O)N(C)[C@@H](CC(C)C)C(=O)N(C)[C@@H](CC(C)C)C(=O)NCCc1ccccc1
[1]
  IC50: 1.4 to 2.1 µg/mL (≈ 2.33 to 3.49 µM)

## CN[C@H](C(=O)N(C)[C@H](C(=O)N(C)[C@H](C(=O)N(C)[C@H](C(=O)N(C)[C@H](C(=O)N(C)[C@H](C(=O)NCCc1ccccc1)C(C)C)C(C)C)C(C)C)C(C)C)C(C)C)C(C)C (H-[NMeV][NMeV][NMeV][NMeV][NMeV][NMeV]-NHPhenethyl)
Escherichia coli
  growth inhibition (GI): inactive
[1]
  Activity: Active
Staphylococcus aureus [2]
  growth inhibition (GI): inactive
Enterococcus faecalis
  growth inhibition (GI): inactive
Pseudomonas aeruginosa
  growth inhibition (GI): inactive
Micrococcus luteus
  growth inhibition (GI): inactive
Staphylococcus aureus [3]
  growth inhibition (GI): inactive

## CCC(C)[C@H]1NC(=O)[C@@H](C(C)C)NC(=O)[C@H]([C@@H](C)O)NC(=O)[C@H](Cc2c[nH]c3ccccc23)NC(=O)[C@@H](NC(C)=O)[C@@H](C)OC(=O)[C@H](CC(C)C)NC1=O (stereo not given in full)
[1]
  IC50: 31.6 µg/mL (≈ 41.9 µM)

## CN[C@H](C(=O)N(C)[C@H](C(=O)N(C)[C@H](C(=O)N(C)[C@H](C(=O)N(C)[C@H](C(=O)N(C)[C@@H](CC(C)C)C(=O)NCCc1ccccc1)C(C)C)C(C)C)C(C)C)C(C)C)C(C)C (H-[NMeV][NMeV][NMeV][NMeV][NMeV][NMeL]-NHPhenethyl)
Escherichia coli
  growth inhibition (GI): inactive
Staphylococcus aureus [2]
  growth inhibition (GI): inactive
Enterococcus faecalis
  growth inhibition (GI): inactive
Pseudomonas aeruginosa
  growth inhibition (GI): inactive
Micrococcus luteus
  growth inhibition (GI): inactive
Staphylococcus aureus [3]
  growth inhibition (GI): inactive

## CN[C@@H](CC(C)C)C(=O)N(C)[C@@H](CC(C)C)C(=O)N(C)[C@@H](CC(C)C)C(=O)N(C)[C@@H](CC(C)C)C(=O)N(C)[C@@H](CC(C)C)C(=O)N(C)[C@@H](CC(C)C)C(=O)NCCc1ccccc1 (H-[NMeL][NMeL][NMeL][NMeL][NMeL][NMeL]-NHPhenethyl)
Escherichia coli
  growth inhibition (GI): inactive
[1]
  Activity: Active
Staphylococcus aureus [2]
  growth inhibition (GI): inactive
Enterococcus faecalis
  growth inhibition (GI): inactive
Pseudomonas aeruginosa
  growth inhibition (GI): inactive
Micrococcus luteus
  growth inhibition (GI): inactive
Staphylococcus aureus [3]
  growth inhibition (GI): inactive

## CN[C@@H](Cc1ccccc1)C(=O)N(C)[C@@H](Cc1ccccc1)C(=O)N(C)[C@@H](Cc1ccccc1)C(=O)N(C)[C@@H](Cc1ccccc1)C(=O)N(C)[C@@H](Cc1ccccc1)C(=O)N(C)[C@@H](Cc1ccccc1)C(=O)NCCc1ccccc1 (H-[NMeF][NMeF][NMeF][NMeF][NMeF][NMeF]-NHPhenethyl)
[1]
  Activity: Active

## CN[C@@H](CC(C)C)C(=O)N(C)[C@@H](CC(C)C)C(=O)N(C)[C@@H](CC(C)C)C(=O)N(C)[C@@H](CC(C)C)C(=O)N(C)[C@@H](CC(C)C)C(=O)N(C)[C@@H](CC(C)C)C(=O)N(C)[C@@H](CC(C)C)C(=O)NCCc1ccccc1 (H-[NMeL][NMeL][NMeL][NMeL][NMeL][NMeL][NMeL]-NHPhenethyl)
[1]
  Activity: Active

## CN[C@@H](CC(C)C)C(=O)N(C)[C@@H](CC(C)C)C(=O)N(C)[C@@H](CC(C)C)C(=O)N(C)[C@@H](CC(C)C)C(=O)N(C)[C@H](CC(C)C)C(=O)NCCc1ccccc1
[1]
  IC50: 1.4 to 2.1 µg/mL (≈ 1.85 to 2.77 µM)

## CC(C)C[C@@H](N)C(=O)N[C@H](CC(C)C)C(=O)N[C@H](CC(C)C)C(=O)N[C@H](CC(C)C)C(=O)NCCc1ccccc1
[1]
  IC50: 1.4 to 2.1 µg/mL (≈ 2.44 to 3.66 µM)

## CN[C@H](C(=O)N(C)[C@H](C(=O)N(C)[C@H](C(=O)N(C)[C@@H](CS)C(=O)NCCc1ccccc1)C(C)C)C(C)C)C(C)C (H-[NMeV][NMeV][NMeV][NMeC]-NHPhenethyl)
[1]
  IC50: 3 µg/mL (≈ 5.19 µM)

## CN[C@H](CC(C)C)C(=O)N(C)[C@H](CC(C)C)C(=O)N(C)[C@H](CC(C)C)C(=O)N(C)[C@H](CC(C)C)C(=O)NCCc1ccccc1
[1]
  IC50: 1.4 to 2.1 µg/mL (≈ 2.22 to 3.33 µM)

## CN[C@@H](CC(C)C)C(=O)N(C)[C@@H](CC(C)C)C(=O)N(C)[C@H](CC(C)C)C(=O)N(C)[C@@H](CC(C)C)C(=O)NCCc1ccccc1
[1]
  IC50: 17.5 µg/mL (≈ 27.8 µM)

## CN[C@H](C(=O)N(C)[C@H](C(=O)N(C)[C@H](C(=O)N(C)[C@H](C(=O)N(C)[C@H](C(=O)N(C)[C@@H](Cc1ccccc1)C(=O)NCCc1ccccc1)C(C)C)C(C)C)C(C)C)C(C)C)C(C)C (H-[NMeV][NMeV][NMeV][NMeV][NMeV][NMeF]-NHPhenethyl)
Escherichia coli
  growth inhibition (GI): inactive
Staphylococcus aureus [2]
  growth inhibition (GI): inactive
Enterococcus faecalis
  growth inhibition (GI): inactive
Pseudomonas aeruginosa
  growth inhibition (GI): inactive
Micrococcus luteus
  growth inhibition (GI): inactive
Staphylococcus aureus [3]
  growth inhibition (GI): inactive

## CN[C@H](C(=O)N(C)[C@H](C(=O)N(C)[C@H](C(=O)N(C)[C@H](C(=O)N(C)[C@H](C(=O)NCCc1ccccc1)C(C)C)C(C)C)C(C)C)C(C)C)C(C)C (H-[NMeV][NMeV][NMeV][NMeV][NMeV]-NHPhenethyl)
[1]
  Activity: Active

## CN[C@@H](CC(C)C)C(=O)N(C)[C@@H](CC(C)C)C(=O)N(C)[C@@H](CC(C)C)C(=O)N(C)[C@@H](CC(C)C)C(=O)NCCc1cccc2ccccc12 (H-[NMeL][NMeL][NMeL][NMeL]-{NH(2-(1-naphthyl)ethyl)})
[1]
  IC50: 1 µg/mL (≈ 1.47 µM)

## CN[C@H](C(=O)N(C)[C@H](C(=O)N(C)[C@H](C(=O)N(C)[C@H](C(=O)N(C)[C@H](C(=O)N(C)[C@H](C(=O)N(C)[C@H](C(=O)NCCc1ccccc1)C(C)C)C(C)C)C(C)C)C(C)C)C(C)C)C(C)C)C(C)C (H-[NMeV][NMeV][NMeV][NMeV][NMeV][NMeV][NMeV]-NHPhenethyl)
[1]
  Activity: Active

## CN[C@@H](Cc1ccccc1)C(=O)N(C)[C@@H](Cc1ccccc1)C(=O)N(C)[C@@H](Cc1ccccc1)C(=O)N(C)[C@@H](Cc1ccccc1)C(=O)NCCc1ccccc1 (H-[NMeF][NMeF][NMeF][NMeF]-NHPhenethyl)
[1]
  Activity: Active
